# PubChem BioAssay AID588390 (Sanford-Burnham Center for Chemical Genomics, 2011)
# Calls of active or inactive are those of the source. The rule behind the calls is not given here.
# Target: Ubiquitin-conjugating enzyme E2 N (Homo sapiens) (UniProt P61088)
# Test: potency of analogues against UBC13 chain formation – biochemical, TR-FRET, set 2, SAR follow-up (AID 588390)
# Conditions: UBC13 polyubiquitination
# Chain of Ubiquitin-conjugating enzyme E2 N (Homo sapiens) (P61088 whole entry, looked up): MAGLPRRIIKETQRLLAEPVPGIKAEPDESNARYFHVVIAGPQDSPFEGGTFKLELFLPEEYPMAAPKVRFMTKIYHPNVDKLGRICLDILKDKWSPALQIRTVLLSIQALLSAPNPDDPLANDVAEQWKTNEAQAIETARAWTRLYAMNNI
row,Compound,IC50
1,O=C(CN1CCC(n2c(C(F)(F)F)nc3cc(F)ccc32)CC1)Nc1ccc2c(c1)OCO2,> 100 µM (inactive)
2,O=C(CN1CCC(n2cnc3cc(F)ccc32)CC1)Nc1cccc(C(F)(F)F)c1,> 100 µM (inactive)
3,O=C(NCCCN1CCN(c2ccc(F)cc2)CC1)C1CCCN(c2ncnc3c2nc2n3CCCCC2)C1 (configuration not stated),2.91 µM
4,O=C(NCCCN1CCN(c2ccccc2)CC1)C1CCCN(c2ncnc3c2nc2n3CCCCC2)C1 (configuration not stated),3.3 µM
5,CCOc1ccc(NC(=O)CN2CCC(n3cnc4cc(F)ccc43)CC2)cc1,> 100 µM (inactive)
6,Cc1nc2cc(F)ccc2n1C1CCN(CC(=O)Nc2ccccc2)CC1,> 100 µM (inactive)
7,CCOc1ccccc1NC(=O)CN1CCC(n2cnc3cc(F)ccc32)CC1,4 µM
8,COc1ccc(NC(=O)CN2CCC(n3c(C)nc4cc(F)ccc43)CC2)c(OC)c1,> 100 µM (inactive)
9,O=C(CN1CCC(n2cnc3cc(F)ccc32)CC1)Nc1ccccc1Br,inactive
10,O=C(CN1CCC(n2cnc3cc(C(F)(F)F)ccc32)CC1)Nc1ccc2c(c1)OCCO2,> 100 µM (inactive)
11,COc1ccc(OC)c(NC(=O)CN2CCC(n3cnc4cc(F)ccc43)CC2)c1,inactive
12,COc1ccc(OC)c(NC(=O)CN2CCC(n3c(C)nc4cc(F)ccc43)CC2)c1,inactive
13,Cc1nc2ccccc2n1C1CCN(CC(=O)Nc2ccccc2Oc2ccccc2)CC1,> 100 µM (inactive)

# The next lines start with the values.
row,IC50,Compound
1,inactive,O=C(C1CCN(c2ncnc3c2nc2n3CCCCC2)CC1)N1CCN(c2ccc(F)cc2)CC1
2,9.81 µM,Cc1ccc(C)c(N2CCN(CCCNC(=O)C3CCCN(c4ncnc5c4nc4n5CCCCC4)C3)CC2)c1 (configuration not stated)
3,4.25 µM,COC(=O)c1c(NC(=O)C(=O)NCC2CCCO2)sc2c1CC(C)(C)OC2 (configuration not stated)
4,inactive,COc1ccccc1N1CCN(CCCNC(=O)C2CCCN(c3ncnc4c3nc3n4CCCCC3)C2)CC1 (configuration not stated)
5,1.34 µM,CC1(C)Cc2c(sc(NC(=O)C(=O)NCCN3CCOCC3)c2C(N)=O)CO1
6,0.58 µM,CC1(C)Cc2c(sc(NC(=O)C(=O)N3CCCC3)c2C(N)=O)CO1
7,2.75 µM,O=C(C1CCN(c2ncnc3c2nc2n3CCCCC2)CC1)N1CCN(Cc2ccccc2)CC1
8,0.63 µM,CC1(C)Cc2c(sc(NC(=O)C(=O)NCC3CCCO3)c2C(N)=O)CO1 (configuration not stated)
9,inactive,CC1(C)Cc2c(sc(NC(=O)C(=O)NCC3CCCO3)c2C(=O)O)CO1 (configuration not stated)
10,> 100 µM (inactive),O=C(c1ccco1)N1CCN(C(=O)C2CCN(c3ncnc4c3nc3n4CCCCC3)CC2)CC1
11,inactive,O=C(C1CCN(c2ncnc3c2nc2n3CCCCC2)CC1)N1CCN(c2ccccn2)CC1
12,> 100 µM (inactive),Cc1cccc(NC(=O)CN2CCC(n3cnc4cc(F)ccc43)CC2)c1C
13,> 100 µM (inactive),O=C(C1CCN(c2ncnc3c2nc2n3CCCCC2)CC1)N1CCN(c2ncccn2)CC1
14,inactive,Cc1cccc(N2CCN(CCCNC(=O)C3CCCN(c4ncnc5c4nc4n5CCCCC4)C3)CC2C)c1 (configuration not stated)
